Source: US10947196B2, “Beta adrenergic agonist and methods of using the same” (CURASEN THERAPEUTICS, INC., priority 2019, dated 2021)
Where two headings read alike, the source gives them in different places.

Assays:
[1] = Microsomal stability (rat); type: in vitro ADME; details: liver microsomes 0.5 mg/mL; method gives CLint in μL/min/mg protein
Protocol: (§1) The master solution was prepared as follows.
(§2) With NADPH: 10 μL of 20 mg/mL liver microsomes and 40 μL of 10 mM NADPH were added to the incubations. The final concentrations of microsomes and NADPH were 0.5 mg/mL and 1 mM, respectively.
(§3) Without NADPH: 10 μL of 20 mg/mL liver microsomes and 40 μL of ultra-pure H2O were added to the incubations. The final concentration of microsomes was 0.5 mg/mL.
(§4) The reaction was started with the addition of 4 μL of 3, 10, 30 and 100 μM test compound solution or control compound solution at the final concentration of 0.03, 0.1, 0.3 and 1 μM and carried out at 37° C.
(§5) Aliquots of 50 μL were taken from the reaction solution at 0, 15, 30, 45 and 60 min. The reaction was stopped by the addition of 4 volumes of cold acetonitrile with IS (100 nM alprazolam, 200 nM labetalol, 200 nM caffeine and 2 μM ketoprofen). Samples were centrifuged at 3, 220 g for 40 minutes. Aliquot of 100 μL of the supernatant was mixed with 100 μL of ultra-pure H2O and then used for LC-MS/MS analysis.
(§6) Peak areas were determined from extracted ion chromatograms. The slope value, k, was determined by linear regression of the natural logarithm of the remaining percentage of the parent drug vs. incubation time curve.
(§7) The in vitro half-life (in vitro t1/2) was determined from the slope value: in vitro t1/2=−(0.693/k) […]

[2] = molecular target: β2 adrenergic receptors in human astrocytoma cells (1321N1) (Homo sapiens (Human), UniProt P07550); test: cAMP HTRF assay in human astrocytoma cells (1321N1); type: cell-based; details: Endogenous receptor, 1321N1 cells
Sequence of β2 adrenergic receptors in human astrocytoma cells (1321N1) (P07550 whole entry): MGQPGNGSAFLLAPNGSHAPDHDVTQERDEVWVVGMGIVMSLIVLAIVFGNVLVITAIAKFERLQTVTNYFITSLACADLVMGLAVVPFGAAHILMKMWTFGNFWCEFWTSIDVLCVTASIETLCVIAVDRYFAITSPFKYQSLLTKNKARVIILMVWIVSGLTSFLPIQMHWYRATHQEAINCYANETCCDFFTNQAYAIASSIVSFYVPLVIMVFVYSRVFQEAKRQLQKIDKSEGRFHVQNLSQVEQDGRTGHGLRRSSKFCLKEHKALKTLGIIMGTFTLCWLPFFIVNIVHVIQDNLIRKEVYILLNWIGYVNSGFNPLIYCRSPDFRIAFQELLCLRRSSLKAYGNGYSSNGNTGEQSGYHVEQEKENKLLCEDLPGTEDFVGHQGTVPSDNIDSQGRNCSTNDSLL
Procedure, shortened: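 Intracellular cAMP quantified by Eu-donor/d2-acceptor HTRF after 30 min compound exposure at 37° C in stimulation buffer with IBMX. Concentrations ran 10 μM top, 5-fold steps, 10 points. Cell lines: 1321N1 astrocytoma and CHO expressing β1 or β2; EC50 via four-parameter fit, relative efficacy against isoproterenol.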

[3] = Microsomal stability (dog); type: in vitro ADME; details: liver microsomes 0.5 mg/mL; method gives CLint in μL/min/mg protein
Protocol: as §1, §2, §3, §4, §5, §6, §7

| Structure (SMILES) | Microsomal stability, Rat [1] [µL/min/mg protein] | Average pEC50 [Receptor subtype: Endogenous; Cell type: 1321N1] [2] | EC50 ([2]; read-out: Average EC50 [Receptor subtype: Endogenous, Cell type: 1321N1]) [nM] | Intrinsic clearance (CLint), dog liver microsomes [3] [µL/min/mg protein] | EC50 ([2]; read-out: Average pEC50 [Receptor subtype: Endogenous, Cell type: 1321N1] (converted)) [nM] |
| --- | --- | --- | --- | --- | --- |
| CC(C)(C)NC[C@H](O)c1cccc(C#N)n1 [Compound 03-5, (S)-6-(2-(tert-butylamino)-1-hydroxyethyl)picolinonitrile] | 2.53 | C-B | 10 to 100 | 4.32 | – |
| CC(C)(C)NC[C@H](O)c1cccc(C(F)(F)F)n1 [Compound 03-3] | 3.48 | – | – | 7.99 | – |
| Cc1ncccc1[C@@H](O)CNC(C)(C)C [Compound 03-115] | – | – | – | – | 100 to 1000 |
